# From ChEMBL document CHEMBL5696441 (Nat Chem Biol, 2011)
# pIC50: −log10 of the molar value.
# Columns and labels:
# [1] = target: Serine/threonine-protein kinase WNK3 (Homo sapiens) (UniProt Q9BYP7); assay: Inhibition of human WNK3 assessed as residual activity at 1 uM using RB-S6P as substrate in presence of 33P-ATP by ProQinase assay relative to control
# [2] = Anti-inflammatory activity against human derived high respond PBMC cells assessed as inhibition in stimulated IL-8 cytokine release incubated for 2 hrs in the presence of LPS/SEB/aCD28 by Luminex based sandwich immunoassay; format: functional, cell-based
# [3] = target: Mitogen-activated protein kinase 9 (Homo sapiens) (UniProt P45984); assay: Inhibition of human JNK2 assessed as residual activity at 1 uM using ATF2 as substrate in presence of 33P-ATP by ProQinase assay relative to control
# [4] = target: CDK9/Cyclin K (Homo sapiens) (UniProt P50750+O75909); assay: Inhibition of human CDK9/CycK assessed as residual activity at 1 uM using RBER-CHKtide as substrate in presence of 33P-ATP by ProQinase assay relative to control; format: protein-complex assay
# [5] = target: Insulin receptor (Homo sapiens) (UniProt P06213); assay: Inhibition of human INSR assessed as residual activity at 1 uM using poly(Ala,Glu,Lys,Tyr)6:2:5:1 as substrate in presence of 33P-ATP by ProQinase assay relative to control
# Chain of Insulin receptor (Homo sapiens) (P06213 28-758 limits assumed): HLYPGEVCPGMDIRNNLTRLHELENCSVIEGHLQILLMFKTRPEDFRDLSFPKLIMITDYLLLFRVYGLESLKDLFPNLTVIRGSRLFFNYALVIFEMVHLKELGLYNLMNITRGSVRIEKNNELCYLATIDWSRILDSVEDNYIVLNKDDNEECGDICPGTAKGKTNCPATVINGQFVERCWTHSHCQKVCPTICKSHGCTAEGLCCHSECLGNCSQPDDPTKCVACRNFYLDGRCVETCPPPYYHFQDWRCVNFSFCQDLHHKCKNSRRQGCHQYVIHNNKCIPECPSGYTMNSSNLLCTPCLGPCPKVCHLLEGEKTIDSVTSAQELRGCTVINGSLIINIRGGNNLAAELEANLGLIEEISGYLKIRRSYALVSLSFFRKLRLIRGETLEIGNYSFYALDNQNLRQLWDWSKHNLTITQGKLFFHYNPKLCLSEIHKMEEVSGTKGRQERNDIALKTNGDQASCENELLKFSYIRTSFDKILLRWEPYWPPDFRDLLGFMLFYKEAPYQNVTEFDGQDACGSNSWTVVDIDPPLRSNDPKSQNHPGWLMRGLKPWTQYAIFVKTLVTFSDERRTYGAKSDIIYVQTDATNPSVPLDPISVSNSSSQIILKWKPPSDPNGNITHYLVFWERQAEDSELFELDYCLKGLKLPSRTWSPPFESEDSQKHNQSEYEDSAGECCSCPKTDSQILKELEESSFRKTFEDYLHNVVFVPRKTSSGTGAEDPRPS
# Chain of Insulin receptor (Homo sapiens) (P06213 763-1382 limits assumed): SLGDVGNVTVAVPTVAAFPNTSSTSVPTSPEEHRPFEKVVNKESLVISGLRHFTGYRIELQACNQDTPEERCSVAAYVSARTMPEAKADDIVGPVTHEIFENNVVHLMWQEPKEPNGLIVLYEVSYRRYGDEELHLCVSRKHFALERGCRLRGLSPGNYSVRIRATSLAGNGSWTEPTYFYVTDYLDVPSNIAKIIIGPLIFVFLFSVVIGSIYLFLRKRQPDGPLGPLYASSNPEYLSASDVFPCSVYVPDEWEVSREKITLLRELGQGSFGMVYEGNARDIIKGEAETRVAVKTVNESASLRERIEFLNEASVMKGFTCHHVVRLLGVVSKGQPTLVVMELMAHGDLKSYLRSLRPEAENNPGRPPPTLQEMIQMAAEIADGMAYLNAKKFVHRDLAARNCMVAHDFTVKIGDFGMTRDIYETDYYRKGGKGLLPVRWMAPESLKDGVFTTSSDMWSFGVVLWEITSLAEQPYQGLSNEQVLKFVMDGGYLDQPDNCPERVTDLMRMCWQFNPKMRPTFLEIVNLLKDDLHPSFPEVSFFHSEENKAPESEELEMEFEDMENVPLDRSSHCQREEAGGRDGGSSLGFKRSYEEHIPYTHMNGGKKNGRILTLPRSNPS
# [6] = target: Dual specificity tyrosine-phosphorylation-regulated kinase 1B (Homo sapiens) (UniProt Q9Y463); assay: Inhibition of DYRK1B (unknown origin) assessed as remaining activity at 1 uM by Kinome scan method relative to control
# Chain of Dual specificity tyrosine-phosphorylation-regulated kinase 1B (Homo sapiens) (Q9Y463 whole entry, looked up): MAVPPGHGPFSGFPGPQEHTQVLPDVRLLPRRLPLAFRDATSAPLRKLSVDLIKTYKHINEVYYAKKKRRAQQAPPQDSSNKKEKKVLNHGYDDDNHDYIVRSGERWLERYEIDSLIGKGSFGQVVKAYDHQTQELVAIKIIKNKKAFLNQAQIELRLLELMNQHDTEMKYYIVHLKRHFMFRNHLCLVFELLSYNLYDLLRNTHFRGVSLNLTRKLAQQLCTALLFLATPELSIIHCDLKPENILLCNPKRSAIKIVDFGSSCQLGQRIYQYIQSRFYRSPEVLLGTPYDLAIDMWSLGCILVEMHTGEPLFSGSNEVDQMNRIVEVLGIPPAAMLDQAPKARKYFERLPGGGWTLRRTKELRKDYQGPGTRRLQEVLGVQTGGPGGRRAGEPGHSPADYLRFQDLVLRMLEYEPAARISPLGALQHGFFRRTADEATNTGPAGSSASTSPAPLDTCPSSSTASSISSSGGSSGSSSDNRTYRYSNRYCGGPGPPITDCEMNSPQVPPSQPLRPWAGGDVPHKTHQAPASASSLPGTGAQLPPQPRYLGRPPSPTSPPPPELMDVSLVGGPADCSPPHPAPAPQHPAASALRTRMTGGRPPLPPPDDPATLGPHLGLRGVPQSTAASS
# [7] = system: Epidermal growth factor receptor (Homo sapiens), P00533 [UNDEFINED MUTATION]; assay: Inhibition of EGFR L747-S752del/P753S mutant (unknown origin) assessed as remaining activity at 1 uM by Kinome scan method relative to control
# [8] = target: NUAK family SNF1-like kinase 2 (Homo sapiens) (UniProt Q9H093); assay: Inhibition of human SNARK assessed as residual activity at 1 uM using histone H2B as substrate in presence of 33P-ATP by ProQinase assay relative to control
# [9] = target: Serine/threonine-protein kinase 24 (Homo sapiens) (UniProt Q9Y6E0); assay: Inhibition of MST3 (unknown origin) assessed as remaining activity at 1 uM by Kinome scan method relative to control
# [10] = target: T1, Tyrosine-protein kinase TXK (Homo sapiens) (UniProt P42681); assay: Inhibition of human TXK assessed as residual activity at 1 uM using RBER-CHKtide as substrate in presence of 33P-ATP by ProQinase assay relative to control
# T1 sequence (whole entry): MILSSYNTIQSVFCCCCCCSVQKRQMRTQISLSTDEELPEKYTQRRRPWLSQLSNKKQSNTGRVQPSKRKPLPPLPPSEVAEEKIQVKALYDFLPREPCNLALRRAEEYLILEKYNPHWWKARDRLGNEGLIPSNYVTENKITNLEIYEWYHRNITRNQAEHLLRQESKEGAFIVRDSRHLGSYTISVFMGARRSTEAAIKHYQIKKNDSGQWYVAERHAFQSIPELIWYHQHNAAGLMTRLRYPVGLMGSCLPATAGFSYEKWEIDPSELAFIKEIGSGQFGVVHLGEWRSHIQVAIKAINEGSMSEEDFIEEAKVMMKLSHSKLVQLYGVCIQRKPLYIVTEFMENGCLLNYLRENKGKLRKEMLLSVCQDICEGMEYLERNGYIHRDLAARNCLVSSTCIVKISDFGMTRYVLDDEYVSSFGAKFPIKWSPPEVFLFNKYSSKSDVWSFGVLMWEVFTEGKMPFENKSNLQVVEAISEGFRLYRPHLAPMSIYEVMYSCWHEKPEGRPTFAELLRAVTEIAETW
# [11] = target: T2, Myosin light chain kinase (Homo sapiens) (UniProt Q32MK0); assay: Inhibition of human MYLK3 assessed as residual activity at 1 uM using RB-S6P as substrate in presence of 33P-ATP by ProQinase assay relative to control
# T2 sequence (whole entry): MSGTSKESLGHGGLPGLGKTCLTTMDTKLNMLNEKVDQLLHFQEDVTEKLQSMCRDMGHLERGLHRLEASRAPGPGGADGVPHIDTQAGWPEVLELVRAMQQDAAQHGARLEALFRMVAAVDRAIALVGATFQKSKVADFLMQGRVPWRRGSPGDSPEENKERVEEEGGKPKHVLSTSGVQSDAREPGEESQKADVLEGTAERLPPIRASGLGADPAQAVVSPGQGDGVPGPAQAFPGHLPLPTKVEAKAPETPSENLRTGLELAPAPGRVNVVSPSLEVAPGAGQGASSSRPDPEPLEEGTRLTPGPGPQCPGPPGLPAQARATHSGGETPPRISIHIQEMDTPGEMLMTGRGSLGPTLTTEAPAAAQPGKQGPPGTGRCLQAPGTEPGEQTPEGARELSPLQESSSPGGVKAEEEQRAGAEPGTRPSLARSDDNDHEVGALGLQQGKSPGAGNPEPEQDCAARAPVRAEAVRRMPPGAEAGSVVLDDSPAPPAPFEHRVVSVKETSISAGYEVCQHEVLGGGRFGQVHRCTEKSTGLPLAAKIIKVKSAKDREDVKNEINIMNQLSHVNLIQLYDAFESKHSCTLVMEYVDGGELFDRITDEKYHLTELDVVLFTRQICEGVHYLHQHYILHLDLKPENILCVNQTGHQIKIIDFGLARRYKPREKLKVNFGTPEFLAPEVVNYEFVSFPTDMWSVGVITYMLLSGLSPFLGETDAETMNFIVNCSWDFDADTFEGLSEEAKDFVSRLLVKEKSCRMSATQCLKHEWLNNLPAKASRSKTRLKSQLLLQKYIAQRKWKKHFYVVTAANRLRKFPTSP
# [12] = system: Fibroblast growth factor receptor 1 (Homo sapiens), P11362 [V561M]; assay: Inhibition of human FGFR1 V561M mutant assessed as residual activity at 1 uM using Poly(Ala,Glu,Lys,Tyr)6:2:5:1 as substrate in presence of 33P-ATP by ProQinase assay relative to control
# Chain of Fibroblast growth factor receptor 1 (Homo sapiens), P11362 [V561M] (P11362 whole entry V561M): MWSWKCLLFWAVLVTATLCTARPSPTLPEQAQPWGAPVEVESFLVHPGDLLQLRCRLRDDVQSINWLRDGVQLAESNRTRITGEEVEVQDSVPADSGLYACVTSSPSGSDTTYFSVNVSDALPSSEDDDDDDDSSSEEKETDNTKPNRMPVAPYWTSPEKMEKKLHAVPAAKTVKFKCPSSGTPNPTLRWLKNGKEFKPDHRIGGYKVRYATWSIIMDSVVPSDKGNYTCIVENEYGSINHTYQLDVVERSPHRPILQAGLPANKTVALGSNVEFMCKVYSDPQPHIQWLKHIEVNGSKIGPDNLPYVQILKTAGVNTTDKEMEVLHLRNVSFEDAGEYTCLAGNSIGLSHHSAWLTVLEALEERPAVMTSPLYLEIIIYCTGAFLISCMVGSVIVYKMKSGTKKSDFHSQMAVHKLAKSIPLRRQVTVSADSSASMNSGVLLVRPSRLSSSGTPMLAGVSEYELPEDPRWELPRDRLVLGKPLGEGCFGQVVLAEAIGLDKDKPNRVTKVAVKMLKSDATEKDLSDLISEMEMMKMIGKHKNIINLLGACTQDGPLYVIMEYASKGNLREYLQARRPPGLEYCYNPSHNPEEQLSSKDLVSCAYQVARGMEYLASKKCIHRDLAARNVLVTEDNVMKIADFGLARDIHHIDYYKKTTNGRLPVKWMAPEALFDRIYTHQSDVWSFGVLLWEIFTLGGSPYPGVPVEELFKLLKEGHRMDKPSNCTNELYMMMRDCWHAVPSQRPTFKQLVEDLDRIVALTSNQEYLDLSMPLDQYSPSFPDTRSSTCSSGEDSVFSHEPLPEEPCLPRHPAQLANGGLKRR
# [13] = target: Serine/threonine-protein kinase MRCK alpha (Homo sapiens) (UniProt Q5VT25); assay: Inhibition of human CDC42BPA assessed as residual activity at 1 uM using RB-S6P as substrate in presence of 33P-ATP by ProQinase assay relative to control
# [14] = target: Interleukin-1 receptor-associated kinase 1 (Homo sapiens) (UniProt P51617); assay: Inhibition of human IRAK1 assessed as residual activity at 1 uM using RB-CTF as substrate in presence of 33P-ATP by ProQinase assay relative to control
# [15] = target: Casein kinase II subunit alpha' (Homo sapiens) (UniProt P19784); assay: Inhibition of CSNK2A2 (unknown origin) assessed as remaining activity at 1 uM by Kinome scan method relative to control
# Chain of Casein kinase II subunit alpha' (Homo sapiens) (P19784 whole entry, looked up): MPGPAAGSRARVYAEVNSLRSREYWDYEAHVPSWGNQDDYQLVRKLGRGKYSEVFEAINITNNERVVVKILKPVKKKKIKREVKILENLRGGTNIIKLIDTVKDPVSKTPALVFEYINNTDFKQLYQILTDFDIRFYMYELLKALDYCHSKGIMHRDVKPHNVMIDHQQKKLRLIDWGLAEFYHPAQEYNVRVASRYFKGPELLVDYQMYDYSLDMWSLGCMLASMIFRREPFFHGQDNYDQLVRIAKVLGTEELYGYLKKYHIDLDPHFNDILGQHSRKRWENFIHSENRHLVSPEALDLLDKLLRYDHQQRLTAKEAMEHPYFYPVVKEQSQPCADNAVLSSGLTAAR
# [16] = system: Platelet-derived growth factor receptor alpha (Homo sapiens), P16234 [D842V]; assay: Inhibition of human PDGFRalpha D842V mutant assessed as residual activity at 1 uM using Poly(Ala,Glu,Lys,Tyr)6:2:5:1 as substrate in presence of 33P-ATP by ProQinase assay relative to control
# Chain of Serine/threonine-protein kinase WNK3 (Homo sapiens) (Q9BYP7 whole entry): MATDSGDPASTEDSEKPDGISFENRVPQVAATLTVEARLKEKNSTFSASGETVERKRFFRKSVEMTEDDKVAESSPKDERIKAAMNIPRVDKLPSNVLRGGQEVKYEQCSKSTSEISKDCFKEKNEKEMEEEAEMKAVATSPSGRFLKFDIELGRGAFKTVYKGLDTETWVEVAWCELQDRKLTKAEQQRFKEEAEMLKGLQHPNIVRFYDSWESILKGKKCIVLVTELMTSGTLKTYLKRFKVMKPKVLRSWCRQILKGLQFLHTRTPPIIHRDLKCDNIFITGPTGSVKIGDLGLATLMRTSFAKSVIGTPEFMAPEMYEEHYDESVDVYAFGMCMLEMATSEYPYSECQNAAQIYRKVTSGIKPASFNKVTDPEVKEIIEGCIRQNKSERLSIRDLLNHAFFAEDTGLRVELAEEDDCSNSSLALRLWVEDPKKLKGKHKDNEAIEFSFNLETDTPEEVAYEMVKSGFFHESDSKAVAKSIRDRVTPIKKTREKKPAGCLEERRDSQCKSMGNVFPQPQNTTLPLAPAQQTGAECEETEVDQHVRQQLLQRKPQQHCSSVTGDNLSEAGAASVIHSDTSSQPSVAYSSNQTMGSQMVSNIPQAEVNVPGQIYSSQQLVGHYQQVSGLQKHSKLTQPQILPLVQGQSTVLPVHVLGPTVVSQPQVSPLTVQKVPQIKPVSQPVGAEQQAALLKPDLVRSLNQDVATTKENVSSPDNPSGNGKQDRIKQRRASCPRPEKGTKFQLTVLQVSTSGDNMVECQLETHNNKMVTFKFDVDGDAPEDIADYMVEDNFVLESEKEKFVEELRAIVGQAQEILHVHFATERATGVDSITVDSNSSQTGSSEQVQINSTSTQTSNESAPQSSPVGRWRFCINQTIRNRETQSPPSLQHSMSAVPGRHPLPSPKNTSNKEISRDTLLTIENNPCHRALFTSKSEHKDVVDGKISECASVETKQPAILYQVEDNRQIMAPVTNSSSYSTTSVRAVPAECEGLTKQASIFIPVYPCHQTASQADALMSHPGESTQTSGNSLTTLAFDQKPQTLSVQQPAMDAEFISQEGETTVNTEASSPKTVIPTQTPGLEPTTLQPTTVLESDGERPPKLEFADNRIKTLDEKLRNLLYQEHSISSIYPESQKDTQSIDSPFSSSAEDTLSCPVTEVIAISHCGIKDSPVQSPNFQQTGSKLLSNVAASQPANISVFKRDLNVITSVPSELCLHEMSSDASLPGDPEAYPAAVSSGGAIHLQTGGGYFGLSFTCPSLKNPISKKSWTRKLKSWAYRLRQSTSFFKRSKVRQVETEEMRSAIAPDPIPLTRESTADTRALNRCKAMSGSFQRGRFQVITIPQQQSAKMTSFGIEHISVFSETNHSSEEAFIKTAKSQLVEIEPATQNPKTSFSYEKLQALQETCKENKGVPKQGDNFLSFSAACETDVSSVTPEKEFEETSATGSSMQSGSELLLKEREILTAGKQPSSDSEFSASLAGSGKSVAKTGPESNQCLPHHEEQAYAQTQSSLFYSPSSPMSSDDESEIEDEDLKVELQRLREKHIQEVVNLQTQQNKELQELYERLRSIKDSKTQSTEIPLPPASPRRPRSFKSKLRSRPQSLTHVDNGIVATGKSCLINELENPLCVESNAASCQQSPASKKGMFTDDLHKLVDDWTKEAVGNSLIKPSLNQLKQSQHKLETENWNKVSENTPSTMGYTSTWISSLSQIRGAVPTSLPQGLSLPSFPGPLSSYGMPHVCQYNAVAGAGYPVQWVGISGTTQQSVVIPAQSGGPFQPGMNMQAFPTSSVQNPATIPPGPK
structure (smiles),measurement,setting,value
O=C1c2ccc(Nc3ccc(F)cc3F)cc2CCc2ccc(OC[C@H](O)CO)cc21 [Skepinone-L],Activity,[1],100%
same,pIC50,[2],7.05
same,Activity,[3],58%
same,Activity,[4],92%
same,Activity,[5],101%
same,Activity,[6],82%
same,Activity,[7],100%
same,Activity,[8],115%
same,Activity,[9],100%
same,Activity,[10],93%
same,Activity,[11],85%
same,Activity,[12],89%
same,Activity,[13],98%
same,Activity,[14],101%
same,Activity,[15],100%
same,Activity,[16],97%
